According to patent publication US20220401343A1, “ORAL CARE COMPOSITIONS FOR GUM HEALTH” (The Procter & Gamble Company, priority 2020, published 2022):

Legend:
[1] = system: Primary Human Gingival Fibroblasts (HGF); experiment: Test 1: In-Vitro Human Gingival Fibroblasts Soluble Collagen Assay (Sircol); format: cell-based; conditions: for increase in collagen productivity vs. base control: Table 7 data, difference to base control
Method: Stage 1: Culturing Primary Human Gingival Fibroblasts (“HGF”): Primary Human Gingival Fibroblasts (“HGF”) were collected from tooth extraction patients and washed with 5 mL of PBS (phosphate buffered saline). The tissues were chopped into small pieces and placed into 15 mL centrifuge tube. The samples were digested with equal amounts of 1 mL 8% dispase and 1 mL 6% collagenase for 1 hr at 37° C., during which time the samples need to be shaken every 15 minutes. Once the digestion process was complete, the tube was centrifuged at 1100 r.p.m. for 6 minutes at room temperature. After centrifugation, a pellet of cells was formed in the bottom of the tube separating them from the supernatant solution. Then the supernatant was discarded and the cell pellet was suspended in 3 mL of fresh Minimum Essential Medium (“MEM”, available from Thermo Fisher) culture medium then transferred to a petri dish. The petri dish with cells were placed in the incubator at 37° C. with 5% CO2 for about 10 days. The petri dish was checked for changes in medium color every two days. Fresh culture medium was replaced if changes in medium color occurred.
Stage 2: Treatment with Compositions: Sub-Culturing Human Gingival Fibroblasts: When there was 80-90% cell monolayer coverage of the petri dish, the present culture medium was removed and washed with 5 mL of PBS. 1 mL 0.25% trypsin-EDTA solution was added and the cells sat for about 1-2 minutes at 37° C. until the cells were visibly round-shaped. It was occasionally necessary to tap the petri dish to remove any sticky cells from the petri dish surface. At least 1 mL of fresh MEM culture medium was added to inactivate the trypsin and the cells are collected into a 15 mL centrifuge tube. The tube was then centrifuged at 1100 r.p.m. for 6 minutes at room temperature. The supernatant was discarded and cell pellet is re-suspend-ed in 4 mL of fresh MEM culture medium in the same centrifuge tube. Petri dishes were each placed with 1 mL cell suspension and 9 mL fresh MEM culture medium in the incubator at 37° C. with 5% CO2 for about 3-5 days until 80-90% cell monolayer coverage on the petri dishes was observed.
When there was 80-90% cell monolayer coverage on the petri dishes, cells were re-suspended in 6 mL of fresh MEM culture medium. 1 mL cell suspension and 1 mL fresh MEM culture medium were respectively added into each well of a 6-well plate. The cells were further washed with 2 mL PBS to remove any suspended cells until no suspended cells are visible. […] Cells were maintained in the incubator at 37° C. with 5% CO2 for 72 hours.
Stage 3 Soluble Collagen Assay: Soluble collagen (types I to V) levels were measured by Sircol collagen assay kit (available from Biocolor, UK). After treatment, cells were washed two times with chilled PBS and homogenized with 6M urea. The cell homogenates were centrifuged at 15,000 r.p.m. for 15 min. 100 μL of the supernatant was mixed with 1 mL of Sircol Dye Reagent for 30 minutes. During this time period, a collagen-dye complex formed and precipitated out from the soluble unbound dye. The tubes were transferred to a microcentrifuge and spun at 12,000 r.p.m. for 10 minutes. The tubes were carefully inverted and drained. 750 μL ice-cold Acid-Salt Wash Reagent was gently added to the collagen-dye pellet to remove unbound dye from the surface of the pellet and the inside surface of the microcentrifuge tube. The tube was then centrifuged at 12,000 r.p.m. for 10 minutes. The supernatant was drained into a waste container and any fluid from the lip of the tubes was removed using cotton wool buds. 250 μL of Alkali Reagent was added to each tube to fully release the collagen bound dye. 200 μL of each sample was transferred to individual wells of a 96 micro well plate, keeping a record map of the contents of each well from A1 to H12.

[2] = system: collagen genes COL1A1 and COL1A2 in skin dermis; experiment: Compound Screening on Skin Dermis: collagen gene expression (microarray) after topical treatment; format: in vivo, human; conditions: dorsal forearm twice daily, four weeks, vs vehicle, retinol at 0.2%, Pal-KTTKS at 100 ppm, p-value in brackets in the cell
Source text: To screen compounds, 30 to 40 female subjects with Fitzpatrick skin types I-III, aged 60-70. At Baseline, each subject was assigned to test each treatment. The products were applied to the dorsal forearm twice daily. Topical treatment with a minimally efficacious moisturizer was used as the vehicle for each test compound and as the negative control.
After four weeks of treatment, one 4-mm punch biopsy was taken from each treated site. The dermis was separated and snap-frozen in liquid nitrogen and stored at −80° C. until assayed. The frozen tissue was then processed for gene expression analysis. To determine gene expression levels, RNA was extracted, labeled with biotin, hybridized and analyzed using Affymetrix GeneTitan® U219 microarray plates according to the manufacturer's instructions.
For genomics analysis, microarray sample quality was assessed using principal components analysis and MA-plots. Treatment to negative control comparisons for the microarray data were assessed using ANOVA models fitted separately for each probe set. ANOVA model hypothesis tests were evaluated using the Empirical Bayes method available in the limma R package. A p-value cutoff of 0.05 or less was consider statistically significant.

[3] = Table 5, 1% composition in culture medium, 72 hours

| Compound | increase in collagen productivity vs. base control [1] | COL1A1 LFC (Log base 2 of the average Fold Change) [2] | COL1A2 LFC (Log base 2 of the average Fold Change) [2] | COL1A1 LFC (Log base 2 of the average Fold Change) ([2]; listed as retinol) | COL1A2 LFC (Log base 2 of the average Fold Change) ([2]; listed as retinol) | Collagen Productivity (Collagen/Cell) [1, 3] | Total Cell Count Cell [1, 3] | Total Collagen ([1]; Table 5, retinoids at 20 ppm in composition, 1% composition in culture medium, 72 hours) [ug/100 ul] | Collagen Productivity (Collagen/Cell) ([1]; Table 6, 1:100 dilution) | Total Cell Count Cell ([1]; Table 6, 1:100 dilution) | Collagen Productivity ([1]; Table 7, 1:100 dilution) [ug per 10^5 cells/100 ul] | Total Cell Count Cell ([1]; Table 7, 1:100 dilution) | Total Collagen ([1]; Table 7, 1:100 dilution) [ug/100 ul] | Collagen Productivity (Collagen/Cell) ([1]; Table 9, 1:50 dilution) | Total Cell Count Cell ([1]; Table 9, 1:50 dilution) | Total Collagen ([1]; Table 9, 1:50 dilution) [ug/100 ul] |
| --- | --- | --- | --- | --- | --- | --- | --- | --- | --- | --- | --- | --- | --- | --- | --- | --- |
| CC1=C(/C=C/C(C)=C/C=C/C(C)=C/CO)C(C)(C)CCC1 [Retinol, retinol] | 0.30 | −0.10 (0.93) | −0.022 (0.88) | did not demonstrate significant regulation | did not demonstrate significant regulation | – | – | – | – | – | – | – | – | – | – | – |
| TGF-B | – | – | – | – | – | 5.17 | 2.60 ×10^5 | 13.44 | 4.86 | 2.72 ×10^5 | 4.86 | 2.72 ×10^5 | 13.24 | 5.17 | 2.60 ×10^5 | 13.44 |
| palmitoyl-lys-thr-thr-lys-ser [Pal-KTTKS] | 0.24 | – | – | – | – | – | – | – | – | – | – | – | – | – | – | – |
